The record followed here is ChEMBL document CHEMBL5126570, “Synthesis, in vitro, in silico and in vivo hypoglycemic and lipid-lowering effects of 4-benzyloxy-5-benzylidene-1,3-thiazolidine-2,4-diones mediated by dual PPAR α/γ modulation” (Bioorg Med Chem Lett, 2022).

The test system of data set [1] is 3T3-L1. The data set is described as follows: Cytotoxicity against adipocyte differentiated mouse 3T3-L1 cells at 100 uM by MTT assay. Particulars: 3t3-l1, 100 µM. It is filed as toxicity, cell-based.
Data set [2] deals with 3T3-L1. Kind of data set: Upregulation of PPARgamma mRNA expression in adipocyte differentiated mouse 3T3-L1 cells at 10 uM measured after 24 hrs. The class given is functional, cell-based.
The test system of data set [3] is 3T3-L1. The data set is described as follows: Upregulation of GLUT-4 mRNA expression in adipocyte differentiated mouse 3T3-L1 cells at 10 uM measured after 24 hrs. The class given is functional, cell-based.
Data set [4] in a line: Lipophilicity, logP of compound. The class given is physicochemical. To be noted: octanol/water.
For data set [5], the target named is T1, Peroxisome proliferator-activated receptor gamma (Homo sapiens) (UniProt P37231).
T1 sequence (whole entry): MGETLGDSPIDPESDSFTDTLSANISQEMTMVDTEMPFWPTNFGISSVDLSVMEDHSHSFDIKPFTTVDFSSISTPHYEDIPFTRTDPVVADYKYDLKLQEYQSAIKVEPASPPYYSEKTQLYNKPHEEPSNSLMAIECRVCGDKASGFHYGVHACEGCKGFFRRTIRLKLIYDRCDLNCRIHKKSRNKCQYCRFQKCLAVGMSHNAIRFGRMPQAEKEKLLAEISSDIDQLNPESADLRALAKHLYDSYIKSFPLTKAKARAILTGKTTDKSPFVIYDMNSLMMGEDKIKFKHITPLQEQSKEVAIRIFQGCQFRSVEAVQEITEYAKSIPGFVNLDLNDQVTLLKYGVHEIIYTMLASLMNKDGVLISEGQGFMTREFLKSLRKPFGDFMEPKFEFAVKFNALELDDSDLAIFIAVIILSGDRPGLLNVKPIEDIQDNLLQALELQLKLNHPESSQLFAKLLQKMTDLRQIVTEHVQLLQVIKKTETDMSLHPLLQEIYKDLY
The data set is described as follows: Binding affinity to PPARgamma (unknown origin) assessed as change in binding free energy. To be noted: filed as modulator.

Data set [6] relates to Mus musculus. The data set is described as follows: Antidiabetic activity in nicotinamide and streptozotocin induced hyperglycemic mouse model assessed as reduction in triglyceride level at 100 mg/kg, IG administered as single dose and measured on day 1 (reference value: 88 +/- 6 mg/dl). It is filed as functional.
Data set [7] deals with Mus musculus. The data set is described as follows: Antidiabetic activity in nicotinamide and streptozotocin induced hyperglycemic mouse model assessed as reduction in triglyceride level at 100 mg/kg, IG administered as single dose and measured on day 3 (reference value: 95 +/- 5 mg/dl). It is filed as functional.
In data set [8] the test system is Mus musculus. Kind of data set: Antidiabetic activity in nicotinamide and streptozotocin induced hyperglycemic mouse model assessed as reduction in triglyceride level at 100 mg/kg, IG administered as single dose and measured on day 0 (reference value: 92 +/- 10 mg/dl). The class given is functional.
Data set [9] concerns Mus musculus. Kind of data set: Antidiabetic activity in nicotinamide and streptozotocin induced hyperglycemic mouse model assessed as reduction in triglyceride level at 100 mg/kg, IG administered as single dose and measured on day 5 (reference value: 93 +/- 10 mg/dl). It is filed as functional.
Data set [10] concerns 3T3-L1. Kind of data set: Upregulation of PPARalpha mRNA expression in adipocyte differentiated mouse 3T3-L1 cells assessed as fold increase in PPARalpha expression at 10 uM measured after 24 hrs. It is filed as functional.
In data set [11] the test system is Mus musculus. The data set is described as follows: Antidiabetic activity in nicotinamide and streptozotocin induced hyperglycemic mouse model assessed as reduction in blood glucose at 100 mg/kg, IG administered as single dose and measured after 7 hrs. It is filed as functional. On the set-up: scale not given: the % may be the effect or the level left.
For data set [12], the system named is 3T3-L1. Kind of data set: Upregulation of PPARgamma mRNA expression in adipocyte differentiated mouse 3T3-L1 cells assessed as fold increase in PPARgamma expression at 10 uM measured after 24 hrs. It is filed as functional.

Calls of active or inactive are those of the source. The calls are words filed in the database; no cut-off is given here.

On to `N#Cc1ccccc1COc1ccc(/C=C2\SC(=O)NC2=O)cc1`, for which the Activity entry in the data set on 3T3-L1 [1] is recorded as “Non-Toxic”. Also, in the data set on 3T3-L1 [2], the result was Active.

As to `COc1cc(/C=C2\SC(=O)NC2=O)ccc1OCc1ccc(-c2ccccc2C#N)cc1`, the Activity entry with 3T3-L1 [1] is listed as “Non-Toxic”. Moreover, the result with 3T3-L1 [3] was Active.

Regarding `N#Cc1ccccc1-c1ccc(COc2ccc(/C=C3\SC(=O)NC3=O)cc2)cc1`, in data set [4], the logP was 4.94. Moreover, the deltaG in [5] is -7.84.

As to `COc1cc(/C=C2\SC(=O)NC2=O)ccc1OCc1ccc(Cl)cc1`, the Activity result with 3T3-L1 [1] was “Non-Toxic”. The result with 3T3-L1 [2] and with 3T3-L1 [3] was Active.

`CC(C)OC(=O)C(C)(C)Oc1ccc(C(=O)c2ccc(Cl)cc2)cc1` [FENOFIBRATE]: the Activity with Mus musculus [6] was 65 mg/dL; in the data set with Mus musculus [7] it was 62 mg/dL; in the data set with Mus musculus [8] it was 88 mg/dL; in the data set on Mus musculus [9], 58 mg/dL.

For the molecule `COc1cc(/C=C2\SC(=O)NC2=O)ccc1OCc1ccccc1C#N`, the Activity entry in the data set with 3T3-L1 [1] is reported as “Non-Toxic”.

Take `COc1cc(/C=C2\SC(=O)NC2=O)ccc1OCc1ccc(C)cc1`: in the data set on 3T3-L1 [1], the Activity result was “Non-Toxic”.

On to `O=C1NC(=O)/C(=C/c2ccc(OCc3ccc(Cl)cc3)cc2)S1`, for which the “fold change (FC)” value in the data set with 3T3-L1 [10] is recorded as 2; in the data set on 3T3-L1 [12], 5. Moreover, the Activity entry in the data set with 3T3-L1 [1] was “Non-Toxic”; in the data set with Mus musculus [6], 75 mg/dL; with Mus musculus [11] it was -68%; in the data set on Mus musculus [7], 77 mg/dL; in the data set with Mus musculus [8] it was 90 mg/dL; in the data set on Mus musculus [9], 75 mg/dL. In [4], this molecule returned a logP of 3.53. Further, the deltaG in [5] is -7.69. In addition, in the data set on 3T3-L1 [3], the outcome was Active.

`O=C1NC(=O)/C(=C/c2ccc(OCc3ccccc3)cc2)S1`: the Activity entry in the data set with 3T3-L1 [1] is reported as “Non-Toxic”. In [4], this molecule gave a logP of 3.

Consider `Cc1ccc(COc2ccc(/C=C3\SC(O)=NC3=O)cc2)cc1`, for which the “fold change (FC)” value is reported as 2 in the data set with 3T3-L1 [10] and 5 with 3T3-L1 [12]. Also, the Activity entry in the data set with 3T3-L1 [1] is “Non-Toxic”; in the data set with Mus musculus [6], 88 mg/dL; with Mus musculus [11], 82%; in the data set with Mus musculus [7] it was 74 mg/dL; in the data set on Mus musculus [8], 93 mg/dL; with Mus musculus [9] it was 70 mg/dL. In data set [4], this molecule came in with a logP of 3.33. Besides, the deltaG in [5] is -7.72. Besides, the outcome in the data set with 3T3-L1 [3] was Active.

In the case of `O=C1N=C(O)S/C1=C\c1ccc(OCc2ccccc2)cc1`, the “fold change (FC)” value in the data set on 3T3-L1 [10] came to 2. In [5], the deltaG is -7.43. Besides, the result in the data set on 3T3-L1 [2] and in the data set on 3T3-L1 [3] was Active. Further, the Activity with Mus musculus [6] turned out to be 70 mg/dL; in the data set on Mus musculus [11] it was 38%; in the data set on Mus musculus [7] it was 69 mg/dL; with Mus musculus [8], 97 mg/dL; with Mus musculus [9], 62 mg/dL.

On to `COc1cc(/C=C2\SC(=O)NC2=O)ccc1OCc1ccccc1`, for which the Activity entry in the data set with 3T3-L1 [1] is reported as “Non-Toxic”. For the same molecule, in the data set on 3T3-L1 [3], the result was Active.
